# Laboratory results taken from PMC5844530, “Fosmetpantotenate (RE-024), a phosphopantothenate replacement therapy for pantothenate kinase-associated neurodegeneration: Mechanism of action and efficacy in nonclinical models” (PLoS ONE, 2018).
# Several values for one entry are separate records, joined by “and”; a condition that tells them apart may be missing. Identical values can stand only once.
# Legend:
# liver and brain CoA = assay: Labeled experiments: incorporation of isotopically labeled fosmetpantotenate into CoA; type: in vivo, mouse; conditions: 125 μg intrastriatally; 6 h
# Text: Fosmetpantotenate was labeled with three ^13C and one ^15N in the PA moiety and with one ^18O in the phosphate moiety, as indicated in Fig 10. The premise of this experiment is the following: if PPA incorporated into CoA originates from fosmetpantotenate metabolism, then all isotope labels (including the ^18O) will be retained in the CoA molecule, resulting in an increase in molecular weight of 6 atomic mass units (AMU) with respect to unlabeled CoA ([M+H]^+ = 774.3 vs 768.3, respectively; Fig 10, Path A). However, if fosmetpantotenate is hydrolyzed to PA, and PA is then re-phosphorylated by WT PanK to yield PPA, or if the ^18O is exchanged with water, then the ^18O would be lost in the process, resulting in a CoA molecule with a 4-AMU increase in molecular weight over unlabeled CoA ([M+H]^+ = 772.3 vs 768.3, respectively, […], Path B). CoA derived from endogenous PA/PPA will have the unchanged molecular weight ([M+H]^+ = 768.3).
# Animal phase: C57BL6N mice, 8-week old and 19 to 21 g obtained from Charles River (Como, Italy) were used in these studies. One group of mice (N = 3 per time point) received a single oral dose of 500 mg/kg isotopically labeled fosmetpantotenate dissolved in 20% hydroxypropyl-β-cyclodextrin. Another set of mice (N = 8 per time point) received a direct administration of isotopically labeled fosmetpantotenate at 125 μg (25 mg/mL of aCSF containing 147 mM NaCl, 3.0 mM KCl, 1.2 mM CaCl2, and 1.2 mM MgCl2) via cannula into striatum. Brain, liver, and blood samples were collected at pre-dose, 6 h, 12 h (brain only), and 24 h, and were snap frozen in liquid nitrogen.
# Two additional groups of mice (N = 6 per time point for each group) received 3 daily doses (8 am, 2 pm, and 8 pm to mimic an anticipated human dosing schedule) of isotopically labeled fosmetpantotenate at either 1.25 μg (0.625 mg/mL aCSF) or 12.5 μg (6.25 mg/mL aCSF) via ICV infusion cannula (2 μL), for up to 10 consecutive days. Brain (striatum) samples were collected at pre-dose, and at 12 h following the third dose on days 1, 3, 7, and 10, and were snap frozen in liquid nitrogen.
# Sample processing: Brain (striatum) and liver tissues were homogenized in a Precellys homogenizer (Bertin technologies, Montigny-le-Bretonneux, France) with 3 volumes of water for each volume of tissue (1:4 dilution). Protein was precipitated by adding 500 μL methanol to 100 μL of homogenate (1:6 dilution), mixed well, and centrifuged. Blood cells (1 volume) were treated with 1:8 v:v water:methanol (1:10 dilution), mixed, and centrifuged. The supernatants (200 μL for brain and blood cells and 100 μL for liver) were dried under nitrogen, reconstituted with 100 μL ammonium acetate 10 mM (pH ~5), and injected (10 μL) into the LC for high resolution mass spectrometry (HRMS) analyses.
# CoA determination: An Acquity UPLC (Waters) system was used. Samples were chromatographed on a Luna C18 column (50 x 2.0 mm; 5 μm), with a 0.4 mL/min flow rate and a 10 μL injection volume. The mobile phases were (A), 10 mM ammonium acetate in water, pH 6.8 and (B) acetonitrile:2-propanol (9:1; v:v). The gradient was started with 2% (B) and was increased linearly to reach 20% (B) at 5 min; the gradient was ramped to reach 90% (B) at 5.1 min and kept isocratic at 90% (B) through 7.1 min.
# The detector was a Waters QTOF Synapt mass spectrometer, with an electrospray ion source operating in the positive scanning mode acquiring in full scan mode (accuracy <5 ppm). The following exact masses were determined: 768.1230 for CoA, 772.1301 for CoA +4 AMU, and 774.1344 for CoA +6 AMU.
# The CoA levels obtained by MS/MS analyses were corrected for ^18O isotopic incorporation. CoA levels were not adjusted for the 1% and 2% of ^12C and ^14N, respectively, in the labeled fosmetpantotenate. […]
# [1] = Metabolic stability in mouse liver microsomes; type: in vitro ADME; conditions: pooled liver microsomes
# Protocol: (§1) Metabolic stability in blood and liver microsomes: Fosmetpantotenate or its individual diastereomers (5 μM, n = 2, 37°C) were incubated in mouse, rat, cynomolgus monkey, and human whole blood. Samples (50 μL) were taken at 0, 5, 15, 30, and 60 min. Incubations of fosmetpantotenate or its individual diastereomers (1 μM, n = 2, 37°C) in pooled liver microsomes (0.25 mg protein/mL in 0.1 M phosphate buffer pH 7.4) were initiated with the addition of nicotinamide adenine dinucleotide phosphate (NADPH; 1 mM). Aliquots (100 μL) were obtained at 0, 5, 10, 20, and 40 min and added to 150 μL of 0.1% formic acid in acetonitrile-containing carbamazepine (0.5 μM) as an analytical internal standard, centrifuged, and the supernatants analyzed by LC-MS/MS.
# (§2) Bioanalysis for determinations of analyte stability: Samples were analyzed using a benchtop tandem quadrupole detector (TQD) mass spectrometer (Waters Ltd, Centennial Park, Hertfordshire). […] Suitable retention and peak shape with separation of the 2 diastereomers were obtained. The chromatography column was a Phenomenex-Kinetex XB C18 (2.10 x 50 mm; 2.6 μm), with a 0.7 mL/min flow rate and a 2 μL injection volume. […]
# (§3) The percent of compound remaining was determined from the MRM area response in each sample relative to that in the T = 0 samples (normalized for internal standard). […]
# [2] = Metabolic stability in monkey liver microsomes; type: in vitro ADME; conditions: pooled liver microsomes
# Protocol: as §1, §2, §3
# [3] = Metabolic stability in rat whole blood; type: in vitro ADME; conditions: for Percentage Remaining: rat whole blood, replicates 1 and 2, listed as Fosmetpantotenate Total
# Protocol: as §1
# Bioanalysis for determinations of analyte stability: Samples were analyzed using a benchtop tandem quadrupole detector (TQD) mass spectrometer (Waters Ltd, Centennial Park, Hertfordshire). […] Suitable retention and peak shape with separation of the 2 diastereomers were obtained. The chromatography column was a Phenomenex-Kinetex XB C18 (2.10 x 50 mm; 2.6 μm), with a 0.7 mL/min flow rate and a 2 μL injection volume. […] The gradient was initiated with 20% B and increased linearly, reaching 40% B at 0.6 min, followed by 50% B at 0.8 min and by 95% B at 0.9 min. Conditions were kept isocratic through 1.2 min, returned to starting conditions (20% B) at 1.25 min, and maintained at 20% B through 1.5 min before the next injection. Since fosmetpantotenate is a mixture of diastereomers which are resolved chromatographically, the fosmetpantotenate MRM area corresponds to the sum of the MRM areas of the individual diastereomers.
# The percent of compound remaining was determined from the MRM area response in each sample relative to that in the T = 0 samples (normalized for internal standard). Natural log plots of the percent compound remaining over time were used to determine the t½ of compound disappearance using the relationship t½ = -0.693/λ, where λ is the slope of the natural logarithm of the percent compound remaining vs time curve.
# [4] = Metabolic stability in rat liver microsomes; type: in vitro ADME; conditions: pooled liver microsomes
# Protocol: as §1, §2, §3
# [5] = pH 7.4, read-out: intrinsic clearance
smiles,measurement,setting,value
COC(=O)CCNC(=O)[C@H](O)C(C)(C)COP(=O)(N[C@@H](C)C(=O)OC)Oc1ccccc1 (mixture of isomers) [Fosmetpantotenate],Brain CoA (%) +6 AMU,liver and brain CoA,36.2%
same,half-life at 1 μM,"[1]; pH 7.4, 1 μM, NADPH",11 min
same,microsomal CLint at 1 μM,[1]; [5],247 µL/min/mg
same,half-life at 1 μM,"[2]; pH 7.4, 1 μM, NADPH",11 min
same,microsomal CLint at 1 μM,[2]; [5],263 µL/min/mg
same,half-life at 5 μM,"[3]; rat blood, 5 μM, 37°C, 60 min",< 5 min
same,Percentage Remaining,[3]; 5 min,6% and 1%
same,Percentage Remaining,[3]; 15 min,0% and 8%
same,Percentage Remaining,[3]; 60 min,0%
same,half-life at 1 μM,"[4]; pH 7.4, 1 μM, NADPH",8 min
same,microsomal CLint at 1 μM,[4]; [5],335 µL/min/mg
